Assay results published in ChEMBL document CHEMBL4373717, “Coumarin-containing hybrids and their anticancer activities” (Eur J Med Chem, 2019).
In brackets after ≈: the same amount, converted by molar mass.

Tests used:
MDA-MB-231 [1] = assay: Cytotoxicity against human MDA-MB-231 cells assessed as reduction in cell viability after 24 hrs by MTT assay; type: functional, cell-based; details: Homo sapiens, MDA-MB-231, 24 h
MDA-MB-231 [2] = assay: Cytotoxicity against human MDA-MB-231 cells assessed as reduction in cell viability after 24 hrs in hypoxic condition by MTT assay; details: MDA-MB-231, 24 h
A549 [3] = assay: Cytotoxicity against human A549 cells assessed as reduction in cell viability after 24 hrs by MTT assay; type: functional, cell-based; details: A549, 24 h
A549 [4] = assay: Anticancer activity against human A549 cells by MTT assay; type: functional, cell-based
MDA-MB-231 [5] = assay: Anticancer activity against human MDA-MB-231 cells by MTT assay; type: functional, cell-based
HeLa [6] = assay: Anticancer activity against human HeLa cells by MTT assay; type: functional, cell-based
K562 = assay: Anticancer activity against human K562 cells by MTT assay; type: functional, cell-based
MCF7 [7] = assay: Growth inhibition of human MCF7 cells; type: functional
L02 = assay: Cytotoxicity against human L02 cells assessed as reduction in cell viability after 24 hrs by MTT assay; type: cell-based; details: L02, 24 h
HEK-293T = assay: Cytotoxicity against HEK293T cells assessed as reduction in cell viability after 24 hrs by MTT assay; type: cell-based; details: Homo sapiens
HeLa [8] = assay: Cytotoxicity against human HeLa cells assessed as reduction in cell viability after 24 hrs by MTT assay; type: functional, cell-based
HepG2 [9] = assay: Antiproliferative activity against human HepG2 cells after 72 hrs by ELISA; type: functional, cell-based; details: HepG2, 72 h
Caco-2 = assay: Antiproliferative activity against human Caco2 cells after 72 hrs by ELISA; type: functional, cell-based; details: Caco-2, 72 h
COS-7 = assay: Cytotoxicity against African green monkey COS7 cells assessed as reduction in cell viability by MTT assay; type: functional, cell-based; details: Chlorocebus aethiops
PC-3 = assay: Cytotoxicity against human PC3 cells assessed as reduction in cell viability by MTT assay; type: functional, cell-based
769-P = assay: Anticancer activity against human 769-P cells by MTT assay; type: functional, cell-based
HepG2 [10] = assay: Anticancer activity against human HepG2 cells by MTT assay; type: functional, cell-based
HT-29 = assay: Cytotoxicity against human HT-29 cells assessed as reduction in cell viability by MTT assay; type: functional, cell-based
A549 [11] = assay: Cytotoxicity against human A549 cells assessed as reduction in cell viability by MTT assay; type: functional, cell-based
HeLa [12] = assay: Cytotoxicity against human HeLa cells assessed as reduction in cell viability by MTT assay; type: functional, cell-based
HeLa [13] = assay: Antiproliferative activity against human HeLa cells by MTT assay; type: functional, cell-based
DLD-1 = assay: Cytotoxicity against human DLD1 cells assessed as reduction in cell viability; type: functional, cell-based
Ishikawa = assay: Growth inhibition of human Ishikawa cells relative to control; type: functional
NCI-H460 = assay: Growth inhibition of human NCI-H460 cells; type: functional
SF-268 = assay: Growth inhibition of human SF268 cells; type: functional
HepG2 [14] = assay: Cytotoxicity against human HepG2 cells assessed as reduction in cell viability after 48 hrs by MTT assay; type: functional, cell-based; details: HepG2, 48 h
[15] = Cytotoxicity against BHK cells assessed as reduction in cell viability by MTT assay; details: Cricetinae
MCF7 [16] = assay: Cytotoxicity against human MCF7 cells assessed as reduction in cell viability by MTT assay; type: functional, cell-based; details: Homo sapiens, MCF7

COc1cccc2c1C(=O)c1c(O)c3c(c(O)c1C2=O)C[C@@](O)(C(=O)CO)C[C@@H]3O[C@H]1C[C@H](N)[C@H](O)[C@H](C)O1 [DOXORUBICIN]
IC50 (MDA-MB-231 [1]): 3970 to 5130 nM | IC50 (MDA-MB-231 [2]): 600 nM | IC50 (A549 [3]): 3970 to 5130 nM | IC50 (A549 [4]): 0.54 to 0.6 µg/mL (≈ 0.994 to 1.1 µM) | IC50 (MDA-MB-231 [5]): 0.45 to 0.89 µg/mL (≈ 0.828 to 1.64 µM) | IC50 (HeLa [6]): 0.54 to 0.6 µg/mL (≈ 0.994 to 1.1 µM) | IC50 (K562): 0.54 to 0.6 µg/mL (≈ 0.994 to 1.1 µM) | GI50 (MCF7 [7]): 40 to 90 nM | IC50 (L02): 1090 nM | IC50 (HEK-293T): 3770 nM | IC50 (HeLa [8]): 3970 to 5130 nM | IC50 (HepG2 [9]): 4100 nM | IC50 (Caco-2): 5130 nM | IC50 (COS-7): 2050 to 3040 nM | IC50 (PC-3): 820 to 2130 nM | IC50 (769-P): 450 to 890 nM | IC50 (HepG2 [10]): 450 to 890 nM | IC50 (HT-29): 820 to 2130 nM | IC50 (A549 [11]): 820 to 2130 nM | IC50 (HeLa [12]): 820 to 3040 nM | IC50 (HeLa [13]): 1110 nM | IC50 (DLD-1): 163000 nM | growth inhibition (GI) (Ishikawa): 11.55 - 95.52% | GI50 (NCI-H460): 40 to 90 nM | GI50 (SF-268): 40 to 90 nM | IC50 (HepG2 [14]): 3010 nM

CN(Cc1cnc2nc(N)nc(N)c2n1)c1ccc(C(=O)N[C@@H](CCC(=O)O)C(=O)O)cc1 [METHOTREXATE]
IC50 [15]: 150000 nM | IC50 (MCF7 [16]): 27100 nM
